# Test system: fibroblasts
# Assay: Toxic effect on cultured fibroblasts, mimic of stealth virus culture toxicity
# Assay type: cell-based
# Settings: 5 nM
# Excerpt: A lack of regular refeeding of the cultures can result in a tendency for the CPE to abort and not to progress. This effect is not seen with CMV infected cultures. In unfed stealth virus cultures and even with regular refeeding, one can observe a toxic effect on many of the remaining cells. Culture cells appear to lose a degree of vitality and become duller in appearance compared to control cultures. The fibroblasts can assume somewhat of a pavement appearance, instead of the elongated shape.
smiles,measurement,value
C=C1[C@@H](O)[C@@H]2O[C@]3(CC[C@H](/C=C/[C@@H](C)[C@@H]4CC(C)=C[C@@]5(O[C@H](C[C@@](C)(O)C(=O)O)CC[C@H]5O)O4)O3)CC[C@H]2O[C@@H]1[C@@H](O)C[C@H](C)[C@H]1O[C@@]2(CCCCO2)CC[C@H]1C [okadaic acid],"toxic effect on culture cells (loss of vitality, duller, pavement appearance)",Some of these changes can be mimicked
